Measurements reported in ChEMBL document CHEMBL1201861, “Genomics of Drug Sensitity in Cancer screening data, Wellcome Trust Sanger Institute”.

Tests used:
Assay in all cases: cells
COLO-800 = type: functional, cell-based, Homo sapiens; settings: Homo sapiens, COLO-800;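 also: growth inhibition of COLO-800 cells, read out with a cell viability assay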
Description: SANGER: Inhibition of human COLO-800 cell growth in a cell viability assay.

Calu-6 = type: functional, cell-based, Homo sapiens; settings: Homo sapiens, Calu-6;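 also: growth of human Calu-6 cells, read out by a cell viability assay, IC50 marking inhibition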
Description: SANGER: Inhibition of human Calu-6 cell growth in a cell viability assay.

D-263MG = type: functional, cell-based, Homo sapiens; settings: Homo sapiens, D-263MG
Description: SANGER: Inhibition of human D-263MG cell growth in a cell viability assay.

D-502MG = type: functional, cell-based, Homo sapiens; settings: Homo sapiens, D-502MG
Description: SANGER: Inhibition of human D-502MG cell growth in a cell viability assay.

DMS-114 = type: functional, cell-based, Homo sapiens; settings: Homo sapiens, DMS-114
DOHH-2 = type: functional, cell-based, Homo sapiens; settings: Homo sapiens, DOHH-2;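 also: growth inhibition of human DOHH-2 cells, read out with a cell viability assay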
Description: SANGER: Inhibition of human DOHH-2 cell growth in a cell viability assay.

EM-2 = type: functional, cell-based, Homo sapiens; settings: Homo sapiens, EM-2;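 also: growth inhibition of EM-2 cells, read out with a cell viability assay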
Description: SANGER: Inhibition of human EM-2 cell growth in a cell viability assay.

ES7 = type: functional, cell-based, Homo sapiens; settings: Homo sapiens, ES7;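 also: growth inhibition of cultured human ES7 cells, read out as cell viability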
Description: SANGER: Inhibition of human ES7 cell growth in a cell viability assay.

EW-11 = type: functional, cell-based, Homo sapiens; settings: Homo sapiens, EW-11;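 also: growth inhibition of human EW-11 cells, measured with a cell viability assay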
Description: SANGER: Inhibition of human EW-11 cell growth in a cell viability assay.

EW-3 = type: functional, cell-based, Homo sapiens; settings: Homo sapiens, EW-3;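 also: cell viability assay read-out, IC50 reflects inhibition of growth of the EW-3 cells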
Description: SANGER: Inhibition of human EW-3 cell growth in a cell viability assay.

HAL-01 = type: functional, cell-based, Homo sapiens; settings: Homo sapiens, HAL-01;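 also: growth inhibition of human HAL-01 cells, read out with a cell viability assay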
Description: SANGER: Inhibition of human HAL-01 cell growth in a cell viability assay.

HD-MY-Z = type: functional, cell-based, Homo sapiens; settings: Homo sapiens, HD-MY-Z;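 also: growth inhibition of HD-MY-Z cells, read out with a cell viability assay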
Description: SANGER: Inhibition of human HD-MY-Z cell growth in a cell viability assay.

HT = type: functional, cell-based, Homo sapiens; settings: Homo sapiens, HT
Description: SANGER: Inhibition of human HT cell growth in a cell viability assay.

HT-144 = type: functional, cell-based, Homo sapiens; settings: Homo sapiens, HT-144
Description: SANGER: Inhibition of human HT-144 cell growth in a cell viability assay.

J-RT3-T3-5 = type: functional, cell-based, Homo sapiens; settings: Homo sapiens, J-RT3-T3-5;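 also: cell viability assay measuring growth inhibition of human J-RT3-T3-5 cells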
Description: SANGER: Inhibition of human J-RT3-T3-5 cell growth in a cell viability assay.

K5 = type: functional, cell-based, Homo sapiens; settings: Homo sapiens, K5
Description: SANGER: Inhibition of human K5 cell growth in a cell viability assay.

KMOE-2 = type: functional, cell-based, Homo sapiens; settings: Homo sapiens, KMOE-2;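 also: growth inhibition of human KMOE-2 cells, read out with a cell viability assay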
Description: SANGER: Inhibition of human KMOE-2 cell growth in a cell viability assay.

L-428 = type: functional, cell-based, Homo sapiens; settings: Homo sapiens, L-428
Description: SANGER: Inhibition of human L-428 cell growth in a cell viability assay.

LNCaP-Clone-FGC = type: functional, cell-based, Homo sapiens; settings: Homo sapiens, LNCaP-Clone-FGC
Description: SANGER: Inhibition of human LNCaP-Clone-FGC cell growth in a cell viability assay.

LOX IMVI = type: functional, cell-based, Homo sapiens; settings: Homo sapiens, LOX IMVI
Description: SANGER: Inhibition of human LOXIMVI cell growth in a cell viability assay.

LS-411N = type: functional, cell-based, Homo sapiens; settings: Homo sapiens, LS-411N
LXF-289 cell line = type: functional, cell-based, Homo sapiens; settings: Homo sapiens, LXF-289
Description: SANGER: Inhibition of human LXF-289 cell growth in a cell viability assay.

MC116 = type: functional, cell-based, Homo sapiens; settings: Homo sapiens, MC116;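 also: growth inhibition of MC116 cells, read out with a cell viability assay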
Description: SANGER: Inhibition of human MC116 cell growth in a cell viability assay.

MLMA = type: functional, cell-based, Homo sapiens; settings: Homo sapiens, MLMA;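 also: growth inhibition of MLMA cells (human), determined through a cell viability readout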
Description: SANGER: Inhibition of human MLMA cell growth in a cell viability assay.

MV4-11 = type: functional, cell-based, Homo sapiens, MV-4-11; settings: Homo sapiens, MV4-11;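 also: cell viability readout measuring growth inhibition of human MV-4-11 cells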
Description: SANGER: Inhibition of human MV-4-11 cell growth in a cell viability assay.

NCI-H1092 = type: functional, cell-based, Homo sapiens; settings: Homo sapiens, NCI-H1092;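 also: cell growth inhibition measured with a cell viability assay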
Description: SANGER: Inhibition of human NCI-H1092 cell growth in a cell viability assay.

NCI-H1355 = type: functional, cell-based, Homo sapiens; settings: Homo sapiens, NCI-H1355;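 also: growth inhibition of human NCI-H1355 cells, read out by a cell viability assay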
Description: SANGER: Inhibition of human NCI-H1355 cell growth in a cell viability assay.

NCI-H23 = type: functional, cell-based, Homo sapiens; settings: Homo sapiens, NCI-H23;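 also: cell viability assay measuring growth inhibition of NCI-H23 cells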
Description: SANGER: Inhibition of human NCI-H23 cell growth in a cell viability assay.

NCI-H747 = type: functional, cell-based, Homo sapiens; settings: Homo sapiens, NCI-H747;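 also: growth inhibition of human NCI-H747 cells, read out by a cell viability assay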
Description: SANGER: Inhibition of human NCI-H747 cell growth in a cell viability assay.

OVCAR-4 = type: functional, cell-based, Homo sapiens; settings: Homo sapiens, OVCAR-4;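 also: growth inhibition of human OVCAR-4 cells, measured with a cell viability assay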
Description: SANGER: Inhibition of human OVCAR-4 cell growth in a cell viability assay.

RCC10RGB = type: functional, cell-based, Homo sapiens; settings: Homo sapiens, RCC10RGB;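 also: growth inhibition of human RCC10RGB cells, read out by a cell viability assay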
Description: SANGER: Inhibition of human RCC10RGB cell growth in a cell viability assay.

RH-1 = type: functional, cell-based, Homo sapiens; settings: Homo sapiens, RH-1;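 also: growth inhibition of human RH-1 cells, read out with a cell viability assay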
Description: SANGER: Inhibition of human RH-1 cell growth in a cell viability assay.

RKO = type: functional, cell-based, Homo sapiens; settings: Homo sapiens, RKO;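 also: growth inhibition of human RKO cells, read out with a cell viability assay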
Description: SANGER: Inhibition of human RKO cell growth in a cell viability assay.

SF-126 = type: functional, cell-based, Homo sapiens; settings: Homo sapiens, SF-126;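 also: growth inhibition of human SF126 cells, read out with a cell viability assay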
Description: SANGER: Inhibition of human SF126 cell growth in a cell viability assay.

SJSA-1 = type: functional, cell-based, Homo sapiens; settings: Homo sapiens, SJSA-1;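 also: growth inhibition of human SJSA-1 cells, read out through a cell viability measurement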
Description: SANGER: Inhibition of human SJSA-1 cell growth in a cell viability assay.

SK-LMS-1 = type: functional, cell-based, Homo sapiens; settings: Homo sapiens, SK-LMS-1;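 also: growth inhibition of human SK-LMS-1 cells, read out with a cell viability assay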
Description: SANGER: Inhibition of human SK-LMS-1 cell growth in a cell viability assay.

SNB-75 = type: functional, cell-based, Homo sapiens; settings: Homo sapiens, SNB-75;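 also: cell viability assay measuring growth inhibition of human SNB-75 cells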
Description: SANGER: Inhibition of human SNB75 cell growth in a cell viability assay.

TE-1 = type: functional, cell-based, Homo sapiens; settings: Homo sapiens, TE-1
Description: SANGER: Inhibition of human TE-1 cell growth in a cell viability assay.

A498 = type: functional, cell-based, Homo sapiens; settings: Homo sapiens, A498;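 also: growth inhibition of human A498 cells, read out with a cell viability assay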
Description: SANGER: Inhibition of human A498 cell growth in a cell viability assay.

A704 = type: functional, cell-based, Homo sapiens; settings: Homo sapiens, A704;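 also: growth inhibition of human A704 cells, read out with a cell viability assay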
Description: SANGER: Inhibition of human A704 cell growth in a cell viability assay.

BB65-RCC = type: functional, cell-based, Homo sapiens; settings: Homo sapiens, BB65-RCC;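 also: growth inhibition of the cell line, measured with a cell viability assay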
Description: SANGER: Inhibition of human BB65-RCC cell growth in a cell viability assay.

BV-173 = type: functional, cell-based, Homo sapiens; settings: Homo sapiens, BV-173
Description: SANGER: Inhibition of human BV-173 cell growth in a cell viability assay.

C8166 = type: functional, cell-based, Homo sapiens; settings: Homo sapiens, C8166;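 also: growth inhibition of human C8166 cells measured by a cell viability assay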
Description: SANGER: Inhibition of human C8166 cell growth in a cell viability assay.

TE-10 = type: functional, cell-based, Homo sapiens; settings: Homo sapiens, TE-10;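 also: growth inhibition of TE-10 cells, measured by a cell viability assay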
Description: SANGER: Inhibition of human TE-10 cell growth in a cell viability assay.

TE-11 = type: functional, cell-based, Homo sapiens; settings: Homo sapiens, TE-11;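 also: growth inhibition of human TE-11 cells, read out by a cell viability assay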
Description: SANGER: Inhibition of human TE-11 cell growth in a cell viability assay.

TGW = type: functional, cell-based, Homo sapiens; settings: Homo sapiens, TGW;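 also: growth inhibition of human TGW cells, read out with a cell viability assay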
Description: SANGER: Inhibition of human TGW cell growth in a cell viability assay.

TK-10 = type: functional, cell-based, Homo sapiens; settings: Homo sapiens, TK-10;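 also: growth inhibition of TK-10 cells, read out in a cell viability assay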
Description: SANGER: Inhibition of human TK10 cell growth in a cell viability assay.

no-11 = type: functional, cell-based, Homo sapiens; settings: Homo sapiens;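 also: growth inhibition of human NO-11 cells, read out with a cell viability assay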
Description: SANGER: Inhibition of human no-11 cell growth in a cell viability assay.

With `CCN(CC)CCNC(=O)c1c(C)[nH]c(/C=C2\C(=O)Nc3ccc(F)cc32)c1C` [SUNITINIB] the IC50 (COLO-800) was > 8 µM, the IC50 (Calu-6) was > 0.008 mM and the IC50 (D-263MG) was > 8 µM. The IC50 (D-502MG) was > 8 µM, the IC50 (DMS-114) was > 8 µM and the IC50 (DOHH-2) was 2.33 µM. For the same compound, the IC50 (EM-2) was > 8000 nM, the IC50 (ES7) was > 8 µM and the IC50 (EW-11) was > 8 µM. The IC50 (EW-3) was 6.43 µM, the IC50 (HAL-01) was 2.06 µM and the IC50 (HD-MY-Z) was 5.17 µM. For the same compound, the IC50 (HT) was > 8 µM, the IC50 (HT-144) was > 8 µM and the IC50 (J-RT3-T3-5) was 6.08 µM. The IC50 (K5) was > 8 µM, the IC50 (KMOE-2) was > 8 µM and the IC50 (L-428) was > 8 µM. The IC50 (LNCaP-Clone-FGC) was > 0.008 mM, the IC50 (LOX IMVI) was > 8 µM and the IC50 (LS-411N) was > 8 µM. The IC50 (LXF-289 cell line) was 2.73 µM, the IC50 (MC116) was 4.43 µM and the IC50 (MLMA) was > 8 µM. For the same compound, the IC50 (MV4-11) was < 0.0312 µM, the IC50 (NCI-H1092) was > 8000 nM and the IC50 (NCI-H1355) was 7.46 µM. The IC50 (NCI-H23) was > 8 µM, the IC50 (NCI-H747) was > 8 µM and the IC50 (OVCAR-4) was > 0.008 mM. The IC50 (RCC10RGB) was > 8000 nM, the IC50 (RH-1) was > 8 µM and the IC50 (RKO) was > 8 µM. For the same compound, the IC50 (SF-126) was 3.06 µM, the IC50 (SJSA-1) was 7.66 µM and the IC50 (SK-LMS-1) was 3830 nM. The IC50 (SNB-75) was > 8 µM, the IC50 (TE-1) was > 8 µM and the IC50 (A498) was > 8 µM. For the same compound, the IC50 (A704) was > 8 µM, the IC50 (BB65-RCC) was > 8000 nM and the IC50 (BV-173) was 2.34 µM. For the same compound, the IC50 (C8166) was > 8 µM, the IC50 (TE-10) was 2.34 µM and the IC50 (TE-11) was 1.84 µM. For the same compound, the IC50 (TGW) was > 8000 nM, the IC50 (TK-10) was > 8 µM and the IC50 (no-11) was 7.78 µM.
With `OCCCNc1cc(-c2ccnc(Nc3cccc(Cl)c3)n2)ccn1` the IC50 (COLO-800) was > 0.256 µM, the IC50 (Calu-6) was > 0.000256 mM and the IC50 (D-263MG) was > 0.256 µM. For the same compound, the IC50 (D-502MG) was > 0.256 µM, the IC50 (DMS-114) was > 0.256 µM and the IC50 (DOHH-2) was 0.0408 µM. The IC50 (EM-2) was 176 nM, the IC50 (ES7) was > 0.256 µM and the IC50 (EW-11) was > 0.256 µM. For the same compound, the IC50 (EW-3) was > 0.256 µM, the IC50 (HAL-01) was 0.066 µM and the IC50 (HD-MY-Z) was 0.0602 µM. It also gave an IC50 (HT) of 0.0662 µM, an IC50 (HT-144) of 0.0206 µM and an IC50 (J-RT3-T3-5) of 0.0832 µM. The IC50 (K5) was 0.0188 µM, the IC50 (KMOE-2) was > 0.256 µM and the IC50 (L-428) was 0.112 µM. For the same compound, the IC50 (LNCaP-Clone-FGC) was > 0.000256 mM, the IC50 (LOX IMVI) was 0.202 µM and the IC50 (LS-411N) was 0.0379 µM. For the same compound, the IC50 (LXF-289 cell line) was 0.164 µM, the IC50 (MC116) was 0.0407 µM and the IC50 (MLMA) was 0.0574 µM. It also gave an IC50 (MV4-11) of 0.0431 µM, an IC50 (NCI-H1092) of 108 nM and an IC50 (NCI-H1355) of 0.0249 µM. For the same compound, the IC50 (NCI-H23) was 0.245 µM, the IC50 (NCI-H747) was 0.0473 µM and the IC50 (OVCAR-4) was > 0.000256 mM. For the same compound, the IC50 (RCC10RGB) was 111 nM, the IC50 (RH-1) was > 0.256 µM and the IC50 (RKO) was 0.114 µM. It also gave an IC50 (SF-126) of 0.134 µM, an IC50 (SJSA-1) of 0.0607 µM and an IC50 (SK-LMS-1) of 135 nM. The IC50 (SNB-75) was 0.0278 µM, the IC50 (TE-1) was > 0.256 µM and the IC50 (A498) was > 0.256 µM. For the same compound, the IC50 (A704) was > 0.256 µM, the IC50 (BB65-RCC) was 60.1 nM and the IC50 (BV-173) was 0.144 µM. The IC50 (C8166) was > 0.256 µM, the IC50 (TE-10) was 0.0382 µM and the IC50 (TE-11) was 0.0342 µM. It also gave an IC50 (TGW) of 76.9 nM, an IC50 (TK-10) of 0.057 µM and an IC50 (no-11) of 0.0293 µM.
For `CN(C)C(=N)NC(=N)N` [METFORMIN], the IC50 (Calu-6) was 15.2 mM, the IC50 (D-263MG) was > 20000 µM and the IC50 (D-502MG) was > 20000 µM. The IC50 (DMS-114) was > 20000 µM, the IC50 (DOHH-2) was 7640 µM and the IC50 (ES7) was > 20000 µM. For the same compound, the IC50 (EW-11) was > 20000 µM, the IC50 (EW-3) was 12200 µM and the IC50 (HAL-01) was > 20000 µM. The IC50 (HD-MY-Z) was > 20000 µM, the IC50 (HT) was 11900 µM and the IC50 (HT-144) was > 20000 µM. The IC50 (J-RT3-T3-5) was > 20000 µM, the IC50 (K5) was > 20000 µM and the IC50 (KMOE-2) was > 20000 µM. The IC50 (L-428) was 7760 µM, the IC50 (LNCaP-Clone-FGC) was 5.23 mM and the IC50 (LOX IMVI) was 10700 µM. The IC50 (LS-411N) was 10400 µM, the IC50 (LXF-289 cell line) was 12000 µM and the IC50 (MC116) was > 20000 µM. The IC50 (MLMA) was > 20000 µM, the IC50 (MV4-11) was 8430 µM and the IC50 (NCI-H1355) was > 20000 µM. The IC50 (NCI-H23) was 17100 µM, the IC50 (NCI-H747) was > 20000 µM and the IC50 (OVCAR-4) was 4.43 mM. The IC50 (RKO) was > 20000 µM, the IC50 (SF-126) was > 20000 µM and the IC50 (SJSA-1) was > 20000 µM. The IC50 (SNB-75) was > 20000 µM, the IC50 (TE-1) was > 20000 µM and the IC50 (A498) was > 20000 µM. For the same compound, the IC50 (BV-173) was 3020 µM, the IC50 (TE-10) was > 20000 µM and the IC50 (TE-11) was > 20000 µM. The IC50 (TK-10) was > 20000 µM and the IC50 (no-11) was > 20000 µM.
